Results on 79 molecules are retold here after the METLIN SMRT retention time set (Domingo-Almenara et al. 2019).

The data set can be described thus: gradient 5% acetonitrile 3 min, to 50% in 2 min, to 85% in 15 min, held 3 min, 100 µL/min. The settings on record: column: Zorbax Extend-C18 2.1 x 50 mm; eluents: water / acetonitrile, 0.1% formic acid. The method, boiled down: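 Over 3 months, pure standards in mixtures of ~100 molecules were run by HPLC coupled to a quadrupole time-of-flight mass spectrometer in positive and negative ionization mode. The column was a Zorbax Extend-C18 (2.1 × 50 mm, 1.8 μm) at 100 μL/min, eluted with water and acetonitrile each holding 0.1% formic acid, with 40 μL dead and 900 μL dwell volumes. Retention time was determined from adduct peaks chosen by software and checked manually.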
The molecule `O=C(NC1CCCCCCC1)c1nnc(-c2ccc(S(=O)(=O)N3CCOCC3)cc2)o1` showed an RP-LC retention time of 991 s. Molecule `CCOCCCNC(=O)N1CC(Oc2cccc(-c3nc(C)no3)c2)C1` showed an RP-LC retention time of 735 s. For `CCc1nn2c(CNS(=O)(=O)c3cccc(C)c3)c(-c3ccccc3)nc2s1` the value was 973 s. For `O=C(CC1CCN(C(=O)Nc2cccc(C(F)(F)F)c2)CC1)N1CCCCC1` the value was 878 s. Molecule `CCc1ccccc1NC(=O)Cn1nc(N2CCOCC2)c2ccccc2c1=O` gave an RP-LC retention time of 744 s. For `COc1ccc(OCCN2CC(=O)N(c3ccc(C)c(C)c3)[C@@H]3CS(=O)(=O)C[C@@H]32)cc1`, the RP-LC retention time turned out to be 859 s. The same measure for `COc1ccc(Cl)cc1NC(=O)CSc1nnc2c3cc(-c4ccc(C)c(C)c4)nn3ccn12`: 1130 s; for `CCc1ccccc1N(C)C(=O)Cc1c(C(=O)O)c(C)cn1C`: 815 s; for `CCCCNC(=O)Cc1csc(-n2nc(C)c(Cl)c2C)n1`: 763 s.

As to `Cc1ccc(-n2nc(C)c3sc(N4CCCC(C(=O)NCc5ccc(N(C)C)cc5)C4)nc32)cc1` (centres undefined), the RP-LC retention time was 867 s.

For `Cc1cccc(Nc2c(-c3ccc(Br)cc3)nc3cnccn23)c1C`, the RP-LC retention time came to 1140 s.

In turn, `O=C(O)c1cc(-c2ccncc2)nc2ccccc12` returned an RP-LC retention time of 572 s.

The molecule `O=C(c1ccc2ccccc2n1)N1CCOc2ccc(N3CCOCC3)cc2C1` had an RP-LC retention time of 784 s. Molecule `CCCCOc1ccccc1C(=O)N(Cc1ccc(Br)o1)C1CCS(=O)(=O)C1` (centres undefined) showed an RP-LC retention time of 991 s. `CC1CN(C(=O)CSc2cn(CC(=O)N(C(C)C)C(C)C)c3ccccc23)CC(C)O1` (centres undefined) gave an RP-LC retention time of 959 s. The same measure for `Cc1ccc(CC(=O)N2CCC3(CC2)NC(=O)c2cccc(Cl)c2N3)cc1`: 812 s; for `CC1(C(=O)NCc2ccccc2Cl)Cn2cnc(C(=O)NCc3ccccc3)c2C(=O)N1C1CC1` (centres undefined): 789 s. The same measure for `O=C1c2c(O)cc(O)cc2OC(c2ccc(O)c(O)c2)C1O` (centres undefined): 687 s; for `O=C(OC1C[C@@H]2CC3C[C@@H](C1)N2CC3=O)c1c[nH]c2ccccc12` (some centres undefined): 638 s. The same measure for `CCN1C(=O)Cc2cc(C(=O)N3CCN(c4ccccn4)CC3)ccc21`: 780 s; for `CC(C)CNC(=O)c1nnn2c1COC(c1ccc(Br)cc1)C2` (centres undefined): 973 s; for `O=C(Nc1ccc2c(c1)CC(C(=O)NCCCc1ccccc1)CO2)c1cccs1` (centres undefined): 900 s. As for `Cc1ccc(C)c(NC(=O)CCCN2C(=O)COc3ccc(C)cc32)c1`, the RP-LC retention time came to 978 s. Consider `CC(C)Cc1ccc(S(=O)(=O)N2CCC3(CC2)NCCN=C3NCc2ccccc2)cc1`, for which the RP-LC retention time came to 856 s. Regarding `O=C(NCc1cc(F)cc(F)c1)C1CCN(c2cnc(N3CCCC3)nc2)CC1`, the RP-LC retention time was determined as 674 s. In the case of `CCOCc1nc(C2CCCN2C(=O)Nc2ccsc2C(=O)OC)no1` (centres undefined), the RP-LC retention time is 626 s. The molecule `COC[C@@H]1CN(Cc2cccc(OC)c2OC)C[C@H]1c1ccncc1` registered an RP-LC retention time of 656 s. Molecule `Cn1cnc(-c2cc3nccc(Oc4ccc(NC(=S)NC(=O)Cc5ccccc5)cc4F)c3s2)c1` returned an RP-LC retention time of 862 s. As for `Cn1cc(CC(=O)NCc2ccc(Br)cc2)c2cccnc21`, the RP-LC retention time amounted to 736 s. The same measure for `NC(=O)c1nnn(Cc2ccccc2F)c1N`: 596 s. On to `CCc1noc2nc(C)n(CC(=O)NCc3ccccc3F)c(=O)c12`, for which the RP-LC retention time came to 788 s. For `Cc1sc2ccn(C)c(=O)c2c1C(=O)NCc1ccccc1F` the value was 751 s. For `CC(=O)N1c2ccc(S(=O)(=O)N3CCCCCC3)cc2CC1C(=O)NCc1ccc(Cl)cc1` (centres undefined), the RP-LC retention time was determined as 951 s. Turning to `COc1ccc(C(=O)Nc2nc(-c3ccc4c(c3)NC(=O)C(C)O4)cs2)cc1` (centres undefined), the RP-LC retention time came to 877 s. The same measure for `Cc1c(Cl)cccc1Nc1c(-c2ccc(N3CCOCC3)cc2)nc2ncccn12`: 758 s; for `O=C(CSc1nc(N2CCCCC2)nc2ccccc12)Nc1ccc2c(c1)OCO2`: 694 s. The same measure for `O=C1C2N=NN(Cc3nc(-c4ccc(Cl)cc4)no3)C2C(=O)N1c1ccc(F)cc1` (centres undefined): 1030 s.

Regarding `Cc1nc(-c2cn(C(C)C)c3ncccc23)sc1C(=O)N(C)Cc1ccccc1`, the RP-LC retention time worked out at 1050 s.

Molecule `COc1cccc(OC)c1C(=O)Nc1nnc(SCc2nnc(-c3ccccc3)o2)s1` yielded an RP-LC retention time of 832 s. For `CCCN(C)C(=O)c1cc(=O)[nH]c2ccccc12` the value was 614 s. Turning to `CC1CN(C2CCCCC2)c2nc3c(c(=O)n(CCN4CCCCC4)c(=O)n3C)n2C1` (centres undefined), the RP-LC retention time turned out to be 722 s. Consider `O=C(Nc1cccc(Cl)c1)N1CCc2nc(-c3ccccc3)ncc2C1`, for which the RP-LC retention time turned out to be 997 s. The same measure for `Cc1cccc(CN2CCCn3nc(C(=O)NCCCN4CCOCC4)cc3C2=O)c1`: 567 s; for `Cc1ccnc(N2CCC(C(=O)Nc3ccc(Br)cc3)CC2)n1`: 784 s; for `O=C(Cn1ccc2ccc(N3CCOCC3)nc21)NCc1cccc(Cl)c1`: 909 s. For `CCc1c(C(=O)O)nnn1-c1cccc(Br)c1` the value was 757 s.

Take `Cc1ccc(F)cc1NC(=O)c1c(O)c2cccnc2n(-c2ccc(F)cc2)c1=O`: the RP-LC retention time amounted to 1290 s. As to `O=c1oc2cc(O)c(Cl)cc2c2ccccc12`, the RP-LC retention time was 847 s. `COc1ccc(-c2noc(C3CC(=O)N(c4ccc(OC)c(OC)c4)C3)n2)c(OC)c1` (centres undefined) had an RP-LC retention time of 786 s. As for `CCN(CC)C(=O)c1ccccc1NC(=O)c1ccc2c(c1)-c1ccccc1S(=O)(=O)N2CC`, the RP-LC retention time amounted to 992 s. `COc1ccc(-n2c(=O)c3sccc3n(Cc3nc(-c4ccccc4)no3)c2=O)cc1` came in with an RP-LC retention time of 953 s.

As to `Cc1ccc(-c2csc(NC(=O)Cn3c(=O)sc4ccccc43)n2)cc1`, the RP-LC retention time stood at 1010 s. Molecule `CN(CC(=O)N1CCN(c2cccc(Cl)c2)CC1)S(=O)(=O)c1ccc2c(c1)CCCC(=O)N2` yielded an RP-LC retention time of 822 s. `COC(=O)c1cc(S(=O)(=O)N2CCCC2C(=O)NCc2ccc(F)cc2)cn1C` (centres undefined) showed an RP-LC retention time of 799 s.

`Cc1cccc(CNC(=O)c2cc3n(n2)CC(C)(C(=O)NCc2ccccc2)N(C)C3=O)c1` (centres undefined) displayed an RP-LC retention time of 732 s. On to `Cc1ccccc1-c1nsc(SCC(=O)NCc2ccco2)n1`, for which the RP-LC retention time was determined as 892 s.

`Cc1ccccc1NC(=O)N1CCCC(Cn2c(C3CC3)nc3cccnc32)C1` (centres undefined) gave an RP-LC retention time of 656 s. `Cc1ncoc1C(=O)N1CC(F)(F)C[C@H]1c1nc(C2CC2)no1`: the RP-LC retention time turned out to be 768 s. For `CC(C)CN1C(=O)CCc2cc(NS(=O)(=O)c3cccs3)ccc21` the value was 819 s. The same measure for `C=CCNC(=O)c1c2c(nc3ccc(C)cc13)CCC2`: 606 s; for `O=C(NCCc1ccccn1)C1CN(C(=O)c2cccs2)CC12CCCCC2` (centres undefined): 602 s. As for `CCOc1coc(C(=O)NCc2ccccc2OC)cc1=O`, the RP-LC retention time is 644 s. The same measure for `Cn1cc(CCNS(=O)(=O)c2ccc(F)cc2Cl)c2cccnc21`: 755 s; for `Cc1ccc(-c2cn3c(CC(=O)NCCC4=CCCCC4)csc3n2)cc1C`: 942 s; for `COC(=O)C(NC(=O)N1CCCn2nc(-c3ccncc3)cc2C1)c1ccccc1` (centres undefined): 606 s. `O=C(c1ccc(F)cc1)N1CCCN(c2nnc3ccc(Cl)cn23)CC1` had an RP-LC retention time of 689 s. The same measure for `CCc1cccc(NC(=O)C2CCN(C(=O)c3ncn4c3COC(c3ccccc3)C4)CC2)c1` (centres undefined): 879 s. In turn, `O=C(Cc1cccs1)N1CCC(Nc2ncnc3c2CCC3)CC1` returned an RP-LC retention time of 590 s. For `Cc1ccc(-c2cc3c4nnc(SCC(=O)Nc5ccccc5Cl)n4ccn3n2)cc1C` the value was 1020 s; for `CCCSCCCNc1nc(-c2nnc(-c3cccc(C)c3)o2)nc2ccccc12`, 1190 s. For `Cc1c(O)cnc2nn(-c3ccccc3)c(=N)n12` the value was 822 s; for `CN1C(=O)c2cc(C(=O)NC3CCN(Cc4ccccc4)CC3)nn2CC1(C)C(=O)NC1CCCC1` (centres undefined), 610 s; for `O=C(Cn1ccn2nc(-c3ccc(F)cc3)c(CO)c2c1=O)Nc1ccc(Cl)cc1F`, 909 s. The same measure for `CCOc1cc(C)c(C)cc1S(=O)(=O)Nc1ccc(Cl)cn1`: 961 s; for `COC(=O)c1cccc(NC(=O)CCc2cccc3[nH]ccc23)c1`: 847 s.

Take `COc1ccc(-c2cn3c(CC(=O)Nc4ccccc4F)csc3n2)cc1OC`: the RP-LC retention time is 724 s. The molecule `COc1ccc2[nH]c(=O)c(CCC(=O)N(C)Cc3cn(C)nc3C)cc2c1` returned an RP-LC retention time of 618 s. With `COC(=O)Cn1nc(-c2nc(-c3ccc(C)cc3)no2)ccc1=O`, the RP-LC retention time was found to be 928 s. `COc1cccc(CNC(=O)C2(C)CCCN(C(=O)Nc3ccc(C)cc3C)C2)c1` (centres undefined) had an RP-LC retention time of 930 s.
